Tests used:
IL-6 mRNA in BV-2 cells = experiment: LPS-induced IL-6 mRNA in BV-2 cells; format: cell-based, murine; details: 10 μM, 6 h LPS stimulation
Experimental: (§1) We stimulated BV-2 by lipopolysaccharide (LPS) and confirmed induction of pro-inflammatory cytokine IL-1β and IL-6 (data not shown). […] These effects were also confirmed by cytokine protein levels.
(§2) Figure 6 Effect of ABK5-1 on lipopolysaccharide (LPS)-induced cytokine production in microglia. BV-2 cells were pretreated with DMSO (<0.1%) or 1 or 10 μM ABK5-1 and stimulated with LPS. (A) mRNA levels of IL-1β and IL-6 after 6 h of LPS stimulation. (B) IL-1β protein concentration in the cell culture medium after 24 h of LPS stimulation. U.D. indicates under detection limit. (C) IL-6 protein concentration in the cell culture medium after 24 h of LPS stimulation. (D) Viability of BV-2 cells after ABK5-1 10 μM treatment. Results are indicated as the mean ± S.D. of three independent assays performed for each concentration. One-way ANOVA plus Dunnett’s post-hoc test were used and **** p < 0.0001 (versus reference). TEXT PRINTED IN THE PICTURE: (B) ABK5-1: IL-1β (pg/mL): U.D. (10 μM; LPS +)

IL-1β mRNA in BV-2 cells = experiment: LPS-induced IL-1β mRNA in BV-2 cells; format: cell-based, murine; details: 10 μM, 6 h LPS stimulation
Experimental: as §1, §2

[1] = system: IL-6 production in BV-2 cells; experiment: LPS-induced IL-6 protein in BV-2 culture medium; format: cell-based, murine; details: 10 μM, 24 h LPS stimulation
Experimental: as §1, §2

[2] = system: IL-1β production in BV-2 cells; experiment: LPS-induced IL-1β protein in BV-2 culture medium; format: cell-based, murine; details: 10 μM
Experimental: as §1, §2

CB1 receptor = target: T1, CB1 receptor (Homo sapiens, UniProt P21554); experiment: Competitive [3H]CP55,940 radioligand binding, membrane from CB1 expressing HEK293 cells; details: for Ki CB1 (CP55,940): competition with [3H]CP55,940, N.B. = no specific binding detected up to 10 μM of test compounds; for CB1 receptor binding: not bound up to: test compound 1 nM to 10 μM
T1 construct: expressed in transfected cells; host or cells: HEK293T cells (called 'HEK293 cells' in Results), calcium phosphate transfection, membrane preparation
T1 sequence (P21554 whole entry): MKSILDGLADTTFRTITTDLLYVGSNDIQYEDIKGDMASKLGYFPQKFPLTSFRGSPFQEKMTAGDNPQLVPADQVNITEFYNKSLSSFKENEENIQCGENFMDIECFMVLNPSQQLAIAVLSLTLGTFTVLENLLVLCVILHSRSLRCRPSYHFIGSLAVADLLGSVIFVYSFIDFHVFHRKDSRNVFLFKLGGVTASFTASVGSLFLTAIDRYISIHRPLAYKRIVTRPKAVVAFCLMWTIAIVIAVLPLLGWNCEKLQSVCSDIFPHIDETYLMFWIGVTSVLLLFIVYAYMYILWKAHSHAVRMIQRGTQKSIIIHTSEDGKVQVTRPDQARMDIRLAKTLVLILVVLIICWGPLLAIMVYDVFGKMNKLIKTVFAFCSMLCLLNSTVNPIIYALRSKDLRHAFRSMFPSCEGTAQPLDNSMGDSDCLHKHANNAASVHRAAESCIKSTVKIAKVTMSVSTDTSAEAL
Source text: To evaluate binding affinity of ABK5 analogs that have a difference in the position of substituents in the N-phenyl ring (Figure 1), we performed competitive radiolabeled ligand binding assays using cell membrane from HEK293T cells transfected with human CB2 receptors. […] ABK5-1, ABK5-2, and ABK5-6 dose-dependently competed with [^3H]CP55,940 and decreased the specific binding of the radiolabeled agonist, which reflects the binding of test compounds to CB2. […] Therefore, ABK5-5 was not considered for further evaluation in this study. […] We also examined CB2 selectivity (versus CB1) of the three compounds by performing similar binding assays using membrane from CB1 expressing HEK293 cells instead of CB2 expressing cells. […] Therefore, ABK5-1 and 5-2 maintained the CB2 subtype selectivity of ABK5.
In the experiment, 1 × 10^6 HEK293T cells were seeded in a 10-cm cell culture dish and cultured for 24 h. Cells were transfected with CB1 or CB2 using the calcium phosphate method. Approximately one day after transfection, cells were harvested and centrifuged at 4 °C for 5 min at 500× g. The pellet was washed with phosphate buffered saline (PBS) twice and resuspended in PBS containing 1% protease-inhibitor cocktail (Sigma-Aldrich, St. Louis, MO, USA) consisting of 104 mM 4-(2-aminoethyl) benzene sulfonyl fluoride hydrochloride (AEBSF), 80 μM apronitin, 4 mM bestatin, 1.64 mM E-64, 2 mM leupeptin, 1.5 mM pepstatin A. Then the cells were subjected to nitrogen cavitation under 750 psi for 5 min using a Parr cell disruption bomb. The lysate was centrifuged at 500× g for 10 min at 4 °C and the supernatant was spun at 116,000× g for 45 min at 4 °C. The pellet, consisting of the cell membrane expressing CB1 or CB2, was resuspended in TME buffer solution (25 mM Tris-HCl, 5 mM MgCl2, and 1 mM EDTA, pH 7.4) with 7% (w/v) sucrose/TME buffer. The concentration of the membrane protein was determined by the Bradford assay (Bradford, 1976).
Membrane protein was mixed with 1 nM to 10 μM of the test compounds and 1 nM [^3H]CP55,940 (164.9 Ci/mmol; PerkinElmer life Sciences, Waltham, MA, USA), and TME buffer supplemented with 0.2% BSA was used to bring the total volume to 200 μL. [^3H]CP55,940 acts as tracer and agonists that bind the target receptor compete with [^3H]CP55,940. Samples were incubated for 1 h at 30 °C. Ten μM unlabeled CP55,940 was used to determine non-specific binding. Reactions were stopped by adding 5% BSA/TME buffer (w/v) and samples were filtered through a Brandel cell harvester using Whatman GF/C filter paper. Ultima Gold XR liquid scintillation cocktail (PerkinElmer Life Sciences, Waltham, MA, USA) was then added and vortexed. A Beckman Coulter 6500 liquid scintillation counter was used to measure the radioactivity of the samples.
Results are presented as the mean ± standard deviation (S.D.). The ligand binding assays and the GTPγS binding assays were both carried out in duplicate for three independent experiments. The Ki values in the ligand binding assay were calculated using the Prism software (GraphPad Software Inc., San Diego, CA, USA), using IC50 values obtained from non-linear regression fitted to the one-site binding model. The Cheng-Prusoff equation [48], which is used for calculation of Ki value is shown below. (1) Ki=IC50/1+L/Kd

Compound | decrease of IL-6 mRNA (IL-6 mRNA in BV-2 cells) [%] | decrease of IL-1β mRNA (IL-1β mRNA in BV-2 cells) [%] | decrease of IL-6 cytokine concentration in the culture medium [1] [%] | IL-1β cytokine concentration in the culture medium (in words) ([2]; 24 h LPS stimulation) | IL-1β ([2]; LPS +, 24 h, U.D. = under detection limit) | Ki CB1 (CP55,940) (CB1 receptor) | CB1 receptor binding: not bound up to (CB1 receptor) [µM]
CCOC(=O)c1ccccc1NC(=O)CN(c1ccc(C)cc1C)S(=O)(=O)c1ccccc1 [ABK5-1] | 48 | 63 | 47 | under the detection limit | U.D. | N.B. ^c | > 10
CCOC(=O)c1ccccc1NC(=O)CN(c1c(C)cccc1C)S(=O)(=O)c1ccccc1 [ABK5-2] | – | – | – | – | – | N.B. ^c | > 10
